The values below come from US20150038438A1, “ANTIBACTERIAL COMPOUNDS AND METHODS FOR USE” (PTC THERAPEUTICS, INC., priority 2011, published 2015).

A word on the MIC: it is the smallest concentration in the dilution series that meets the test's criterion for growth inhibition.

What all share (test): Antibacterial activity, microbroth dilution method (MIC)
(In general: Broth dilution looks for growth in wells or tubes with falling amounts of substance.)

Test [1] concerns control Gram-negative E. coli 25922 strain. Format: cell-based, Escherichia coli. The following applies: for MIC: Escherichia coli. An excerpt: (§1) The antibacterial activity from a microbroth dilution method may be presented as the minimum inhibitory concentration (MIC in μg/mL). The MIC value is the lowest concentration of drug which prevents macroscopically visible growth under test conditions.
(§2) Antibacterial activity of test compounds against the super sensitive Gram-negative Escherichia coli (E. coli) BAS849 bacterium, the control Gram-negative E. coli 25922 strain and the Gram-positive Staphylococcus aureus (S. aureus) 29213 bacterium are shown in Table 1.

Test [2] deals with super sensitive Gram-negative Escherichia coli (E. coli) BAS849. In kind it is cell-based. The following applies: for MIC: Escherichia coli, read-out: MIC, E. coli BAS849.
Excerpt: as §1, §2

In test [3] the test system is Gram-positive Staphylococcus aureus (S. aureus) 29213. Format: cell-based. The following applies: Gram-positive S. aureus 29213; for MIC: Staphylococcus aureus.
Excerpt: as §1, §2

The mark [4] stands for this setting: super sensitive Gram-negative E. coli BAS849, microbroth dilution.

In brackets after ≈: the same amount, converted by molar mass. Counter-ions that a name gives are not always drawn. Like-named read-outs stand apart in the source and are kept apart here.

`CCNCc1cc2cc3c(cc2n1C)[C@H](O)[C@H](O)Cc1c-3[nH]c(=O)c(C(=O)O)c1O.Cl` (relative stereo) [Cpd 71, (cis)-10-((ethylamino)methyl)-4,6,7-trihydroxy-9-methyl-2-oxo-1,2,5,6,7,9-hexahydropyrido[3′,2′:6,7]cyclohepta[1,2-f]indole-3-carboxylic acid hydrochloride]: the MIC in test [1], in test [2] (setting [4]) and in test [3] was 12.5 to 150 µg/mL in each case.

For `CN(C)c1ccc2c(c1)CCc1cc(C(=O)O)c(=O)[nH]c1-2` [Cpd 1, 8-(dimethylamino)-2-oxo-1,2,5,6-tetrahydrobenzo[h]quinoline-3-carboxylic acid], the MIC in test [1] is 12.5 to 150 µg/mL (≈ 44 to 528 µM); in test [2] (setting [4]), 3.5 to 12.5 µg/mL (≈ 12.3 to 44 µM); in test [3], 12.5 to 150 µg/mL (≈ 44 to 528 µM).

In the case of `CN(C)c1ccc2c(c1)CCCc1cc(C(=O)O)c(=O)[nH]c1-2` [Cpd 2, 9-(dimethylamino)-2-oxo-2,5,6,7-tetrahydro-1H-benzo[6,7]cyclohepta[1,2-b]pyridine-3-carboxylic acid], the MIC is 12.5 to 150 µg/mL (≈ 41.9 to 503 µM) in test [1], less than 1 µg/mL in test [2] (setting [4]) and 12.5 to 150 µg/mL (≈ 41.9 to 503 µM) in test [3].

As to `CN(C)c1ccc2c(c1)CCCc1c-2[nH]c(=O)c(C(=O)O)c1O` [Cpd 3, 9-(dimethylamino)-4-hydroxy-2-oxo-2,5,6,7-tetrahydro-1H-benzo[6,7]cyclohepta[1,2-b]pyridine-3-carboxylic acid], the MIC in test [1] is 3.5 to 12.5 µg/mL (≈ 11.1 to 39.8 µM); in test [2] (setting [4]), less than 1 µg/mL; in test [3] it was 3.5 to 12.5 µg/mL (≈ 11.1 to 39.8 µM).

For the molecule `CN(C)c1ccc2c(c1)CCCCc1cc(C(=O)O)c(=O)[nH]c1-2` [Cpd 4, 10-(dimethylamino)-2-oxo-1,2,5,6,7,8-hexahydrobenzo[7,8]cycloocta[1,2-b]pyridine-3-carboxylic acid], the figures for the MIC in test [1], in test [2] (setting [4]) and in test [3] were 12.5 to 150 µg/mL (≈ 40 to 480 µM), less than 1 µg/mL and 12.5 to 150 µg/mL (≈ 40 to 480 µM), respectively.

Turning to `CN(C)c1ccc2c(c1)CCCCc1c-2[nH]c(=O)c(C(=O)O)c1O` [Cpd 5, 10-(dimethylamino)-4-hydroxy-2-oxo-1,2,5,6,7,8-hexahydrobenzo[7,8]cycloocta[1,2-b]pyridine-3-carboxylic acid], the minimal inhibitory concentration (MIC) is 12.5 to 150 µg/mL (≈ 38.1 to 457 µM) in test [1], less than 1 µg/mL in test [2] (setting [4]) and 3.5 to 12.5 µg/mL (≈ 10.7 to 38.1 µM) in test [3].

Turning to `CN(C)C1CCN(c2ccc3c(c2)CCCc2c-3[nH]c(=O)c(C(=O)O)c2O)C1.Cl` (stereo not drawn) [Cpd 6, 9-(3-(dimethylamino)pyrrolidin-1-yl)-4-hydroxy-2-oxo-2,5,6,7-tetrahydro-1H-benzo[6,7]cyclohepta[1,2-b]pyridine-3-carboxylic acid hydrochloride], the MIC in test [1] was 3.5 to 12.5 µg/mL; in test [2] (setting [4]) it was less than 1 µg/mL; in test [3], 12.5 to 150 µg/mL.

As to `O=C(O)c1c(O)c2c([nH]c1=O)-c1ccc(N3CCCC3)cc1CCC2` [Cpd 7, 4-hydroxy-2-oxo-9-(pyrrolidin-1-yl)-2,5,6,7-tetrahydro-1H-benzo[6,7]cyclohepta[1,2-b]pyridine-3-carboxylic acid], the MIC in test [1] was 12.5 to 150 µg/mL (≈ 36.7 to 441 µM); in test [2] (setting [4]) it was less than 1 µg/mL; in test [3], 3.5 to 12.5 µg/mL (≈ 10.3 to 36.7 µM).

Take `CNC1CCN(c2ccc3c(c2)CCCc2c-3[nH]c(=O)c(C(=O)O)c2O)C1.Cl` (stereo not drawn) [Cpd 8, 4-hydroxy-9-(3-(methylamino)pyrrolidin-1-yl)-2-oxo-2,5,6,7-tetrahydro-1H-benzo[6,7]cyclohepta[1,2-b]pyridine-3-carboxylic acid hydrochloride]: the MIC lay within 3.5 to 12.5 µg/mL in test [1], 1 to 3.5 µg/mL in test [2] (setting [4]) and 12.5 to 150 µg/mL in test [3].

For `N[C@@H]1[C@H]2CN(c3ccc4c(c3)CCCc3c-4[nH]c(=O)c(C(=O)O)c3O)C[C@@H]12` [Cpd 9, 9-((cis,cis)-6-amino-3-azabicyclo[3.1.0]hexan-3-yl)-4-hydroxy-2-oxo-2,5,6,7-tetrahydro-1H-benzo[6,7]cyclohepta[1,2-b]pyridine-3-carboxylic acid trifluoroacetate], the MIC in test [1] was less than 1 µg/mL; in test [2] it was less than 1 µg/mL; in test [3], 3.5 to 12.5 µg/mL.

Consider `CN(Cc1ccccc1)[C@H]1[C@@H]2CN(c3ccc4c(c3)CCCc3c-4[nH]c(=O)c(C(=O)O)c3O)C[C@@H]21` [Cpd 10, 9-((cis,cis)-6-(benzyl(methyl)amino)-3-azabicyclo[3.1.0]hexan-3-yl)-4-hydroxy-2-oxo-2,5,6,7-tetrahydro-1H-benzo[6,7]cyclohepta[1,2-b]pyridine-3-carboxylic acid hydrochloride], for which the MIC in test [1] was 12.5 to 150 µg/mL; in test [2] (setting [4]) it was 3.5 to 12.5 µg/mL; in test [3], 1 to 3.5 µg/mL.

Take `CN[C@H]1[C@@H]2CN(c3ccc4c(c3)CCCc3c-4[nH]c(=O)c(C(=O)O)c3O)C[C@@H]21` [Cpd 11, 4-hydroxy-9-((cis,cis)-6-(methylamino)-3-azabicyclo[3.1.0]hexan-3-yl)-2-oxo-2,5,6,7-tetrahydro-1H-benzo[6,7]cyclohepta[1,2-b]pyridine-3-carboxylic acid hydrochloride]: the MIC is 1 to 3.5 µg/mL in test [1], less than 1 µg/mL in test [2] (setting [4]) and 3.5 to 12.5 µg/mL in test [3].

Regarding `CC1CCc2cc(N3CCC(N(C)C)C3)ccc2-c2[nH]c(=O)c(C(=O)O)c(O)c21.Cl` (stereo not drawn) [Cpd 12, 9-(3-(dimethylamino)pyrrolidin-1-yl)-4-hydroxy-5-methyl-2-oxo-2,5,6,7-tetrahydro-1H-benzo[6,7]cyclohepta[1,2-b]pyridine-3-carboxylic acid hydrochloride], the MIC in test [1] was in the range of 12.5 to 150 µg/mL; in test [2] (setting [4]) it was 1 to 3.5 µg/mL; in test [3] it was 12.5 to 150 µg/mL.

Consider `CC1CCc2cc(N3C[C@@H]4[C@@H](N)[C@@H]4C3)ccc2-c2[nH]c(=O)c(C(=O)O)c(O)c21` (stereo partly drawn) [Cpd 13, 9-((cis,cis)-6-amino-3-azabicyclo[3.1.0]hexan-3-yl)-4-hydroxy-5-methyl-2-oxo-2,5,6,7-tetrahydro-1H-benzo[6,7]cyclohepta[1,2-b]pyridine-3-carboxylic acid hydrochloride], for which the MIC was 1 to 3.5 µg/mL in test [1], less than 1 µg/mL in test [2] (setting [4]) and 3.5 to 12.5 µg/mL in test [3].

Turning to `NC1C2CN(c3ccc4c(c3)C(O)CCc3c-4[nH]c(=O)c(C(=O)O)c3O)CC12.O=C(O)C(F)(F)F` (stereo not drawn) [Cpd 14, 9-((cis,cis)-6-amino-3-azabicyclo[3.1.0]hexan-3-yl)-4,7-dihydroxy-2-oxo-2,5,6,7-tetrahydro-1H-benzo[6,7]cyclohepta[1,2-b]pyridine-3-carboxylic acid trifluoroacetate salt], the “MIC, E. coli 25922” value in test [1] was “* (an MIC value between >12.5 μg/mL and ≦150 μg/mL)”. Also, in test [2] (setting [4]), the “MIC, E. coli BAS849” value is “* (an MIC value between >12.5 μg/mL and ≦150 μg/mL)”. Besides, the “MIC, S. aureus 29213” value in test [3] was “* (an MIC value between >12.5 μg/mL and ≦150 μg/mL)”.

In the case of `CN(C)C1CCN(c2ccc3c(c2)C(O)CCc2c-3[nH]c(=O)c(C(=O)O)c2O)C1.Cl` (stereo not drawn) [Cpd 15, 9-(3-(dimethylamino)pyrrolidin-1-yl)-4,7-dihydroxy-2-oxo-2,5,6,7-tetrahydro-1H-benzo[6,7]cyclohepta[1,2-b]pyridine-3-carboxylic acid hydrochloride], the MIC in test [1], in test [2] (setting [4]) and in test [3] was 12.5 to 150 µg/mL in each case.

In the case of `Cn1ccc2cc3c(cc21)C=CCc1c-3[nH]c(=O)c(C(=O)O)c1O` [Cpd 16, 4-hydroxy-9-methyl-2-oxo-1,2,5,9-tetrahydropyrido[3′,2′:6,7]cyclohepta[1,2-f]indole-3-carboxylic acid], the MIC in test [1] was 1 to 3.5 µg/mL (≈ 3.1 to 10.9 µM); in test [2] (setting [4]) it was less than 1 µg/mL; in test [3] it was 1 to 3.5 µg/mL (≈ 3.1 to 10.9 µM).

For the molecule `Cn1ccc2cc3c(cc21)CCCc1c-3[nH]c(=O)c(C(=O)O)c1O` [Cpd 17, 4-hydroxy-9-methyl-2-oxo-1,2,5,6,7,9-hexahydropyrido[3′,2′:6,7]cyclohepta[1,2-f]indole-3-carboxylic acid], the MIC in test [1] is 1 to 3.5 µg/mL (≈ 3.08 to 10.8 µM); in test [2] (setting [4]), less than 1 µg/mL; in test [3], 1 to 3.5 µg/mL (≈ 3.08 to 10.8 µM).

On to `Cn1ccc2cc3c(c(F)c21)CCCc1c-3[nH]c(=O)c(C(=O)O)c1O` [Cpd 18, 8-fluoro-4-hydroxy-9-methyl-2-oxo-1,2,5,6,7,9-hexahydropyrido[3′,2′:6,7]cyclohepta[1,2-f]indole-3-carboxylic acid], for which the MIC was 3.5 to 12.5 µg/mL (≈ 10.2 to 36.5 µM) in test [1], less than 1 µg/mL in test [2] (setting [4]) and 1 to 3.5 µg/mL (≈ 2.92 to 10.2 µM) in test [3].

As for `CCNCc1cc2cc3c(cc2n1C)Cc1c-3[nH]c(=O)c(C(=O)O)c1O.Cl` [Cpd 19, 2-((ethylamino)methyl)-8-hydroxy-1-methyl-6-oxo-1,5,6,9-tetrahydropyrido[3′,2′:4,5]cyclopenta[1,2-f]indole-7-carboxylic acid hydrochloride], the MIC in test [1], in test [2] (setting [4]) and in test [3] was 12.5 to 150 µg/mL each time.

For `CNCc1cc2cc3c(cc2n1C)CCc1c-3[nH]c(=O)c(C(=O)O)c1O.Cl` [Cpd 20, 4-hydroxy-8-methyl-9-((methylamino)methyl)-2-oxo-2,5,6,8-tetrahydro-1H-indolo[6,5-h]quinoline-3-carboxylic acid hydrochloride], the results for the MIC in test [1], in test [2] (setting [4]) and in test [3] were 3.5 to 12.5 µg/mL, 1 to 3.5 µg/mL and 12.5 to 150 µg/mL, respectively.

`Cl.Cn1c(CN2CCC2)cc2cc3c(cc21)CCc1c-3[nH]c(=O)c(C(=O)O)c1O` [Cpd 21, 9-(azetidin-1-ylmethyl)-4-hydroxy-8-methyl-2-oxo-2,5,6,8-tetrahydro-1H-indolo[6,5-h]quinoline-3-carboxylic acid hydrochloride]: the results for the MIC in test [1], in test [2] (setting [4]) and in test [3] were 3.5 to 12.5 µg/mL, 1 to 3.5 µg/mL and 12.5 to 150 µg/mL, respectively.

Consider `CNCc1cc2cc3c(cc2n1C)CCCc1c-3[nH]c(=O)c(C(=O)O)c1O.Cl` [Cpd 22, 4-hydroxy-9-methyl-10-((methylamino)methyl)-2-oxo-1,2,5,6,7,9-hexahydropyrido[3′,2′:6,7]cyclohepta[1,2-f]indole-3-carboxylic acid hydrochloride], for which the minimum inhibitory concentration (MIC) in test [1] is less than 1 µg/mL; in test [2] (setting [4]), less than 1 µg/mL; in test [3], 3.5 to 12.5 µg/mL.
